Measured values as given in BindingDB's records for doi:10.1021/acsmedchemlett.6b00390 (Yale University, 2016).

Experiments:
[1] = Inhibition of HIV1 reverse transcriptase K103N/Y181C double mutant infected in human MT2 cells assessed as protection against viral infection by MTT assay
[2] = Inhibition of HIV1 reverse transcriptase Y181C mutant infected in human MT2 cells assessed as protection against viral infection by MTT assay

Row | SMILES | EC50 [1] [nM] | EC50 [2] [nM]
1 | N#Cc1ccc2ccc(Oc3ccc(F)cc3OCCn3ccc(=O)[nH]c3=O)cc2c1 | 9400 | 1200
2 | N#Cc1ccc2c(Cl)cc(Oc3ccc(F)cc3OCCn3ccc(=O)[nH]c3=O)cc2c1 | 4100 | 1100
3 | CCOc1cc(Oc2ccccc2OCCn2ccc(=O)[nH]c2=O)c(C)c2cc(C#N)ccc12 | 800 | 200
4 | Cc1cc2ccc(C#N)cc2c(C)c1Oc1ccccc1OCCn1ccc(=O)[nH]c1=O | 1700 | > 100
5 | Cc1c(Oc2ccccc2OCCn2ccc(=O)[nH]c2=O)cc(Cl)c2ccc(C#N)cc12 | – | 58
6 | N#Cc1cc2c(Oc3ccc(F)cc3OCCn3ccc(=O)[nH]c3=O)cc(F)cn2c1 | 10 | 250
7 | Cc1c(Oc2ccc(F)cc2OCCn2ccc(=O)[nH]c2=O)cc(Cl)c2ccc(C#N)cc12 | 500 | 27
8 | CCCc1cc(Oc2ccccc2OCCn2ccc(=O)[nH]c2=O)c(C)c2cc(C#N)ccc12 | 990 | 630
9 | Cc1cc(Oc2ccccc2OCCn2ccc(=O)[nH]c2=O)cc2cc(C#N)ccc12 | 2900 | 800
10 | Cc1c(Oc2ccccc2OCCn2ccc(=O)[nH]c2=O)cc(F)c2ccc(C#N)cc12 | 890 | 60
11 | Cc1cc(Oc2ccccc2OCCn2ccc(=O)[nH]c2=O)c(C)c2cc(C#N)ccc12 | 150 | 62
12 | N#Cc1ccc2c(F)cc(Oc3ccc(F)cc3OCCn3ccc(=O)[nH]c3=O)c(Cl)c2c1 | 1600 | 72
13 | COCc1cc(Oc2ccccc2OCCn2ccc(=O)[nH]c2=O)c(C)c2cc(C#N)ccc12 | 790 | 690
14 | Cc1cc(Oc2ccc(F)cc2OCCn2ccc(=O)[nH]c2=O)c(F)c2cc(C#N)ccc12 | 3800 | 1200
15 | Cc1c(Oc2ccccc2OCCn2ccc(=O)[nH]c2=O)cc(CC2CC2)c2ccc(C#N)cc12 | 1200 | 900
16 | N#Cc1ccc2cc(Oc3ccccc3OCCn3ccc(=O)[nH]c3=O)ccc2c1 | 5600 | > 100
17 | CCc1cc(Oc2ccccc2OCCn2ccc(=O)[nH]c2=O)c(C)c2cc(C#N)ccc12 | 300 | 150
18 | N#Cc1ccc2ccc(Oc3ccccc3OCCn3ccc(=O)[nH]c3=O)cc2c1 | 4000 | 2600
19 | N#Cc1ccc2c(Cl)cc(Oc3ccccc3OCCn3ccc(=O)[nH]c3=O)cc2c1 | 890 | 890
20 | Cc1cc(Oc2ccc(F)cc2OCCn2ccc(=O)[nH]c2=O)c(C)c2cc(C#N)ccc12 | 410 | 28
21 | Cc1cc(Oc2ccccc2OCCn2ccc(=O)[nH]c2=O)c(Cl)c2cc(C#N)ccc12 | 120 | 42
22 | Cc1c(Oc2ccc(Cl)cc2OCCn2ccc(=O)[nH]c2=O)cc(F)c2ccc(C#N)cc12 | > 100 | 330
23 | Cc1c(Oc2ccc(F)cc2OCCn2ccc(=O)[nH]c2=O)cc(F)c2ccc(C#N)cc12 | 980 | 31
24 | N#Cc1ccc2c(F)cc(Oc3ccccc3OCCn3ccc(=O)[nH]c3=O)c(Cl)c2c1 | 310 | 90
25 | Cc1c(Oc2ccccc2OCCn2ccc(=O)[nH]c2=O)cc(C(C)C)c2ccc(C#N)cc12 | 100 | 400
26 | COc1cc(Oc2ccccc2OCCn2ccc(=O)[nH]c2=O)c(C)c2cc(C#N)ccc12 | 1600 | 670
27 | Cc1c(Oc2ccccc2OCCn2ccc(=O)[nH]c2=O)c(C)c2cc(C#N)ccc2c1C | 790 | –
